Results taken from patent publication US20110189174A1, “COMPOSITIONS AND METHODS FOR TREATING, REDUCING, AMELIORATING, ALLEVIATING, OR INHIBITING PROGRESSION OF, PATHOGENIC OCULAR NEOVASCULARIZATION” (priority 2010, published 2011).

Legend:
[1] = test system: human retinal endothelial cells (HREC); assay: Testing 7: VEGF-induced HREC proliferation (MTS assay), integrin antagonists and Lucentis alone and in combination; assay type: cell-based
Description: HREC were first cultured overnight in a 96-well plate coated with fibronectin. The next day medium containing different agents as shown in Tables 14 and 15 was pre-incubated for 1 hour before being added into appropriate wells. The cells were cultured at 37° C., 5% CO2, and 95% humidity for another 3 days. After that, cell proliferation was estimated by the MTS assay. In the first study we used VEGF 10 ng/mL (about EC80 in study PH08169), Lucentis® 1 ng/mL (about EC25 in study PH09038) and 5 doses of BOL-303055-X. Normal IgG (1 ng/ml) was also added to groups containing no Lucentis®. All groups contained the same amount of 0.1% DMSO. In the second study, all five compounds (BOL-303049-X, BOL-303050-X, BOL-303051-X, BOL-303054-X and BOL-303055-X) were tested at 1 nM with other conditions remaining the same.
A 96-well plate was coated with human fibronectin (10 μg/mL) for 5 hours at 37° C. HREC were washed with HBSS buffer once, tripsinized and re-suspended in 10% FBS CS-C medium at 18,000 cells/mL. Cells (200 μL) were added to the plate and cultured overnight at 37° C., 5% CO2, and 95% humidity. Next day, the cells were serum-starved for 2 hours.
For study I, VEGF at 10 ng/mL, Lucentis® at 1 ng/mL and BOL-303055-X at 0.1, 0.3, 1, 3 and 10 nM were prepared in 1% FBS CS medium as shown in Table 14. Normal IgG (1 ng/mL) were added to groups containing no Lucentis®. All medium solutions were incubated for 1 hour at 37° C. After carefully medium was aspirated, 200 μL of the medium containing different agents were then added into appropriate wells. The cells were cultured for another 3 days. For the study II as shown in the Table 15, five compounds were tested at 1 nM with other conditions remaining the same as study I.
At the end of incubation, the medium was carefully aspirated from cells and 120 μl of MTS working solution was added into all wells including blank wells (without cells). The plates were incubated at 37° C., 5% CO2, and 95% humidity for 1 hour and then read by a plate reader at 490 nm wavelength.
Median optical density (OD) was generated from different groups. Data were expressed as mean±SEM of the OD values. Statistical analysis was performed using three-way ANOVA after Box-Cox transformations, and p<0.05 was considered statistically significant. To evaluate whether the effects of the combinations were either synergistic or additive, net inhibitions were calculated by subtracting the basal levels in the presence of VEGF from the individual treatments (Lucentis® and Integrin blockers) and the combinations. […] Data analysis was performed utilizing the statistical analysis software JMP (SAS Institute, Cary, N.C.).

[2] = Intraocular pressure (Tono-pen) in monkeys after intravitreal injection; assay type: in vivo, cynomolgus monkeys (Macaca fascicularis)
Description: Once the phase Ib study was completed, and it was established that the drug suspension in oil would not interfere with either laser administration, evaluation of CNV or cause adverse effects, phase II was initiated. On days 1, and 15 both eyes of monkeys received 50 μL of Lucentis (0.5 mg/eye), vehicle (0 mg/eye), BOL-303050-X (1.5 mg/eye), BOL-303054-X (1.5 mg/eye) or BOL-303055-X (1.5 mg/eye) (Table 2). Intravitreous injection was performed for each by eye aiming towards mid-vitreous body. Dosing in the right eye was alternated for successive doses (as applicable) at approximately the 11 o'clock and 10 o'clock positions. Dosing in the left eye was alternated for successive doses (as applicable) from approximately the 1 o'clock and 2 o'clock positions.
IOP was done in conjunction with the OE using a Tono-pen on anesthetized monkeys on days 1, 3, 7, 15, and 31 of dosing Phase II and on the day of scheduled sacrifice (day 38).
Grade IV lesions were analyzed using either Fisher's exact probability test (2-Tail) or Chi square test (χ2). For the analysis of delta changes in TOP a two-way ANOVA with repeated measures followed by the contrast procedure was performed on Box-Cox transformed data if needed. Unless indicated otherwise, data are presented as means±SEM unless stated otherwise. P<0.05 was considered statistically significant.

[3] = Ocular clinical findings in rats 14 days after intravitreal injection
Description: The anterior segment of the eye was examined using a slit-lamp biomicroscopy for excluding any animals with abnormalities that might interfere with the study. Fundus photography and fluorescein angiography (FA) were performed to document the health of the retina and the ocular circulation using a TRC 50EX fundus camera (Topcon). For FA, 10% sodium fluorescein was injected intravenously (50 mg/kg of body weight) through the tail vein or the vein under the incisor before the procedure.
Immediately after placement of laser photocoagulation, the experimental eyes received an intravitreal injection of either a compound or a vehicle as described in Table 5. Following the disinfection of ocular surface with 5% betadine and 0.9% saline solutions, the injections were performed with aid of a surgical microscope using 0.3 mL syringes with a 31-gauge ½-inch long needle (Ultra-Fine II™ Insulin syringe, BD, Franklin Lakes, N.J.).
Two weeks after photocoagulation, all rats were examined under anesthesia and pupil dilation with slit-lamp biomicroscopy, fundus photography and FA as described in the baseline examination.

[4] = test system: human retinal endothelial cells (HREC); assay: Testing 4: VEGF-induced HREC proliferation (MTS assay), Avastin with or without BOL-303050-X; assay type: cell-based; settings: for HREC proliferation in the presence of VEGF, compound alone: VEGF 10 ng/ml, 3 days
Description: HREC were first cultured overnight in a 96-well plate coated with fibronectin. The next day, cells were serum-starved for 2 hours before treatment. […] The cells were then cultured at 37° C., 5% CO2, and 95% humidity for another 3 days.
A 96-well plate was coated with human fibronectin (10 μg/ml) at 37° C. for 5 h. HREC were collected from flasks by EDTA-trypsin treatment and re-suspended in 10% FBS CS-C medium at 18,000 cells/ml. Cells (200 μl/well) were added to the plate and cultured overnight at 37° C., 5% CO2, and 95% humidity. The next day, medium was aspirated and 200 μl/well serum-free medium was added for 2 h at 37° C., 5% CO2, and 95% humidity.
Normal IgG was added in such a way that all groups contained the same amount of IgG proteins. All medium solutions were incubated for 1 h at 37° C., 5% CO2, and 95% humidity. After carefully aspirating the medium from cells, 200 μl of the medium containing different agents were added into appropriate wells. The cells were further cultured for 3 days.
At the end of incubation, the medium was carefully aspirated from cells and 120 μl of MTS working solution was added into all wells including four blank wells (without cells). The plate was incubated at 37° C., 5% CO2, and 95% humidity for 1 hour and then read by a plate reader at 490 nm wavelength.
Median optical density (OD) was generated from different groups. Data were expressed as mean±SEM of the OD values. Statistical analysis was performed using two-way ANOVA followed by the contrast procedure after Box-Cox transformations if needed, and p<0.05 was considered statistically significant. […] All the data from the individual wells were fitted to a re-parameterized four-parameter logistic equation to obtain IC50 using similar methodology as that previously described and utilizing the statistical analysis software JMP (SAS Institute, Cary, N.C.).

[5] = study II, compound 1 nM, Lucentis 1 ng/mL
[6] = Day 14, 200 μg/eye intravitreal

For `CCc1nc(NC[C@H](NC(=O)OCc2ccccc2)C(=O)O)c(C)c(N2CCC(c3ccc4c(n3)NCCC4)CC2)n1` [BOL-303055-X], the “HREC proliferation without VEGF” value ([1]; basal and Lucentis-treatment conditions, Lucentis 1 ng/mL, BOL-303055-X 0.1-10 nM, other compounds 1 nM) was “reduced HREC proliferation in a statistically significant and dose-dependent manner”, the “Inhibiting effect on VEGF-induced HREC proliferation in the presence of Lucentis versus without” value ([1]; study I, 0.1, 0.3, 1, 3 and 10 nM, Lucentis 1 ng/mL) was “significantly greater inhibiting effect” and the “Inhibition of VEGF-induced HREC proliferation, compound alone” value ([1]; study I, 0.1-10 nM, VEGF 10 ng/mL) was “inhibited VEGF-induced HREC proliferation in a dose-dependent manner”. The “Combination effect with Lucentis on VEGF-induced HREC proliferation (synergistic/additive)” value ([1]; study I, compound 0.1 nM, Lucentis 1 ng/mL) was “synergistic effects”, the “Combination effect with Lucentis on VEGF-induced HREC proliferation (synergistic/additive)” value ([1]; study I, compound 0.3 nM, Lucentis 1 ng/mL) was “additive” and the “Combination effect with Lucentis on VEGF-induced HREC proliferation (synergistic/additive)” value ([1]; study I, compound 1, 3 and 10 nM, Lucentis 1 ng/mL) was “additive”. For the same compound, the “Combination effect with Lucentis on VEGF-induced HREC proliferation (synergistic/additive)” value [1, 5] was “additive effects”, the “IOP change compared with baseline” value ([2]; right eyes day 15, left eyes days 3 and 15) was “reduced IOP” and the “Increase in IOP compared to baseline” value ([2]; right eyes, day 31, 1.5 mg/eye intravitreal days 1 and 15) was 4 mm Hg. For the same compound, the “Eyes with anterior chamber inflammation/Total eyes” value [3, 6] was 5/6, the “Eyes with retinal vascular congestion/vessel-observable eyes” value [3, 6] was 2/2 and the “Posterior synechiae of iris” value [3, 6] was “Posterior synechiae of iris occurred in several eyes”. For the same compound, the “Enhancement of Avastin potency” value ([4]; compound at 1 nM) was “approximately 6 fold” and the “Enhancement of Avastin potency” value ([4]; compound at 10 nM) was roughly 7 fold.
With “bevacizumab [Avastin, reference compound]” the “Inhibition of VEGF-induced HREC proliferation by Avastin alone” value ([4]; 3-300 ng/ml, significant from 10 ng/ml) was “dose-dependent inhibition”, the “IC50 of Avastin on VEGF-induced HREC proliferation” value ([4]; in the presence of BOL-303050-X 1 nM) was 0.015 µg/mL and the “IC50 of Avastin on VEGF-induced HREC proliferation” value ([4]; in the presence of BOL-303050-X 10 nM) was 0.013 µg/mL.
In the case of `COc1ccc(S(=O)(=O)N[C@@H](CNc2nc(C)nc(N3CCC(c4ccc5c(n4)NCCC5)CC3)c2C)C(=O)O)cc1` [BOL-303050-X], the “Combination effect with Lucentis on VEGF-induced HREC proliferation (synergistic/additive)” value [1, 5] is reported as “additive effects”, the “Reduction of IOP versus baseline” value ([2]; day 38 only, 1.5 mg/eye intravitreal days 1 and 15) is reported as 4 mm Hg and the “Eyes with anterior chamber inflammation/Total eyes” value [3, 6] is reported as 0/6. The “Eyes with retinal vascular congestion/vessel-observable eyes” value [3, 6] was 0/5, the “Intraocular inflammation and retinal vascular congestion” value ([3]; Day 14 after intravitreal injection) was “Neither inflammation nor retinal vascular congestion was observed” and the “HREC proliferation in the presence of VEGF, compound alone” value ([4]; 1 nM) was “significantly reduced”. The “HREC proliferation in the presence of VEGF, compound alone” value ([4]; 10 nM) was “significantly reduced”, the “HREC proliferation under basal conditions” value ([4]; 1 and 10 nM tested, no VEGF) was “significant effects were only observed at 10 nM” and the “Combination effect with Avastin on VEGF-induced HREC proliferation (synergistic/additive)” value ([4]; compound 1 nM, Avastin 30 to 300 ng/ml) was “synergistic effects”. The “Combination effect with Avastin on VEGF-induced HREC proliferation (synergistic/additive)” value ([4]; compound 10 nM, Avastin at all doses) was “additive effect” and the “Improvement of the potency of Avastin” value ([4]; compound at 1 and 10 nM) was 6- to 7 fold.
With `COc1c(NC[C@H](NC(=O)OCc2ccccc2)C(=O)O)ncnc1N1CCC(c2ccc3c(n2)NCCC3)CC1` [BOL-303054-X] the “Combination effect with Lucentis on VEGF-induced HREC proliferation (synergistic/additive)” value [1, 5] was “additive effects”, the “Eyes with anterior chamber inflammation/Total eyes” value [3, 6] was 4/6 and the “Eyes with retinal vascular congestion/vessel-observable eyes” value [3, 6] was 4/5.
